{"source": "patent US20240091227A1", "about": "“Use Of 2-Phenyl-6-(1H-Imidazol-1-YL) Quinazoline For Treating Neurodegenerative Diseases, Preferably Alzheimer's Disease” (ROTTAPHARM BIOTECH S.R.L., priority 2019, published 2024)", "key": {"[1]": {"tested_on": "PKCε", "assay": "PKCε translocation to the plasma membrane in cultured dorsal root ganglia neurons", "format": "cell-based, rat", "conditions": "for IC50: rat DRG neurons", "description": "FIG. 1 reports the time-course (A) and washout (B) of CR4056 effect on PKCF translocation induced by bradykinin (BK 1 μM). In Panel A, open symbols represent the percentage of neurons positive for PKCF translocation following BK stimulation in absence of the drug. Filled symbols represent neurons pre-incubated with CR4056 ([…]) for different times before the stimulation for 30 seconds with BK+CR4056. The first filled symbol indicates the effect of CR4056 co-incubated for 30 seconds with BK, the second filled symbol indicates 10 seconds of pre-incubation of CR4056, and the last indicates 24 hours of pre-incubation of CR4056. […] In Panel B, BK-induced PKCF translocation was evaluated before (open symbol) and after pre-incubation of CR4056 ([…]) at different time intervals (from 10 minutes to 8 hours) (filled symbols). The first datapoint was obtained at the end of the 10 minute pre-incubation, when CR4056 was still present. The subsequent datapoints were obtained after extensive rinsing to ensure complete removal of the drug from extracellular solution (n=3).\nRat dorsal root ganglia (DRGs) were obtained from freshly isolated spines after carefully removing nerve trunks and connective tissue. Larger ganglia, chopped into 2-4 smaller pieces were then incubated for 1 hour at 37° C. in 0.125% collagenase (Worthington, Freehold, NJ) dissolved in Dulbecco's modified Eagle's medium (DMEM) containing 10% fetal bovine serum (FBS) plus 1% penicillin/streptomycin and 1% L-glutamine (Euroclone, Milan, Italy). After enzymatic digestion, ganglia were mechanically dissociated and neurons plated at a density such that neurons would cover about 30% of coverslip surface in a single layer, in petri dishes containing wells with a glass bottom coverslip (pre-coated with 10 μg/mL poly-L-lysine and 20 µg/ml laminin, Sigma-Aldrich, Milan, Italy). Cells were incubated for 2-3 days in DMEM as described above, plus 1.5 μg/ml cytosine 1-d-arabinofuranoside (ARA-C, Sigma-Aldrich) to slow down proliferation of non neuronal cells, and 100 ng/ml nerve growth factor (NGF, Sigma-Aldrich) to increase cell health and the and the expression of receptors which are linked to PKCF translocation upon stimulation. Activation of membrane receptors coupled to phospholipase C pathway leads to PKCF translocation from cytoplasm to the plasma membrane. In order to study PKCε behaviour a well established technique was employed (Vellani V, Neuroscience, 2006). […] CR4056 was pre-applied in the culture medium for 10 min or co-applied with the stimulus. After fixation, cells were permeabilized with 0.2% Triton X-100 (Sigma-Aldrich, Milan, Italy) and exposed overnight to a rabbit polyclonal antibody highly specific for PKCF. After extensive rinsing, PKCF was visualized with a secondary antibody (1:200 dilution Alexa Fluor 488 goat anti-rabbit, Thermo Fisher Scientific, Monza, Italy) applied for 2-4 hours at room temperature in the dark Cells showing PKCF translocation were detected with a confocal microscope (Leica SP2, Leica, Switzerland) by measuring fluorescence intensity along a line drawn through the cytoplasm and the membrane, thus avoiding the nucleus. Neurons in which fluorescence intensity at the plasma membrane throughout the cell was 1.5-fold or higher than the mean cytoplasmic intensity were considered positive."}, "[2]": {"tested_on": "Rats treated with scopolamine", "assay": "Passive avoidance in scopolamine-induced memory impairment", "format": "in vivo, rat", "description": "FIG. 3 reports results of a passive avoidance test in the model of scopolamine-induced memory loss. Rats treated with scopolamine (Sco, 1 mg/kg) or physiological solution (Sal) received CR4056 10 mg/kg bid or its vehicle (MC). t student test. *p<0.05; **P<0.01 (n=6).\nScopolamine, a nonselective muscarinic receptor antagonist, produces a blocking of the activity of the muscarinic acetylcholine receptor, and the concomitant appearance of transient cognitive amnesia and electrophysiological changes, which resemble those observed in Alzheimer's disease. Therefore, scopolamine administration may be considered as a psychopharmacological model of Alzheimer's disease (Lenz R A, Psychopharmacology (Berl), 2012). Passive avoidance is a behavioural model of memory impairment.\nThe apparatus consisted of a two-compartment box: light and dark compartments separated by a door. The rat was placed in the center of the light compartment, with the door between two compartments closed. After 4 seconds, the door was opened and the latency time, i.e., the time taken by the rat to enter all four paws into the dark compartment was recorded.\nOnce the rat moved completely in the dark compartment, the door was closed and immediately a mild foot shock was delivered through the grid floor. Thus, during the initial phase the animal learned that the moving to the dark compartment had negative consequences. […]"}, "[3]": {"conditions": "10 μM, 10 minute application, then washout"}}, "note": "Like-named read-outs stand apart in the source and are kept apart here.", "data": [{"smiles": "c1ccc(-c2ncc3cc(-n4ccnc4)ccc3n2)cc1", "note": "[CR4056, 2-phenyl-6-(1H-imidazol-1-yl)quinazoline]", "values": [{"measurement": "Time after washout during which the effect remained unchanged", "setting": "[1]; [3]", "result": "up to 1 hour"}, {"measurement": "Time after washout to complete reversal of the effect", "setting": "[1]; [3]", "result": "3 to 4", "unit": "h"}, {"measurement": "Influence of preincubation time on inhibition of PKCF translocation", "setting": "[1]; 10 μM, preincubation prolonged up to 24 hours or reduced to 10 seconds", "result": "did not change the extent of the effect"}, {"measurement": "Effect on BK-induced PKCF translocation, time-course (FIG. 1A)", "setting": "[1]; CR4056 10 M, co-incubation 30 seconds to 24 hours pre-incubation, BK 1 μM, t-test p<0.05, n=6", "result": "highly significant at all times"}, {"measurement": "Concentration at which the dose-response curves approached saturation", "setting": "[1]; CR4056 applied for 10 minutes", "result": "about 10 μM"}, {"measurement": "IC50", "setting": "[1]; bradykinin stimulus, read-out: IC50, inhibition of PKCF translocation obtained with BK", "result": 200, "unit": "nM"}, {"measurement": "IC50", "setting": "[1]; prokineticin 2 stimulus, read-out: IC50, inhibition of PKCF translocation obtained with PK2", "result": 170, "unit": "nM"}, {"measurement": "Escape latency time, passive avoidance, sham animals", "setting": "[2]; rats not treated with scopolamine, CR4056 10 mg/kg bid vs vehicle (MC)", "result": "not different from its vehicle"}, {"measurement": "Escape latency time, passive avoidance, scopolamine-treated animals", "setting": "[2]; rats, scopolamine 1 mg/kg sc, CR4056 10 mg/kg bid orally", "result": "counteracted the memory impairment"}]}]}
